Assay results from US20240150338A1, “COMPOUNDS AND USE THEREOF FOR TREATMENT OF NEURODEGENERATIVE, DEGENERATIVE AND METABOLIC DISORDERS” (University of Florida Research Foundation, Incorporated, priority 2021, published 2024).

Assays:
[1] = Microsomal stability assay; format: in vitro ADME; conditions: 1 mg/ml human hepatic microsomes, 37° C., half-life by LC-MS/MS; yes = stability ≥15 minutes
Method: The metabolic stability of some test compounds was determined in hepatic human and mouse microsomes. The compound was incubated with 1 mg/ml human or mouse hepatic microsomes at 37° C. with continuous shaking. Aliquots were removed at various time points between 5 minutes and 2 hours and acetonitrile was added to quench the reactions and precipitate the proteins. Samples were then centrifuged through 0.45 μm filter plates and half-lives were determined by LC-MS/MS.

[2] = tested on: PK1 neuroblastoma cells exposed to TPrP; experiment: cells; format: cell-based; conditions: Neuroblastoma cell, 96 h, read-out: TPrP EC50

Row | Structure (SMILES) | Stabilty in human microsomes ≥ 15 minutes [1] | EC50 [2] [nM]
1 | Cc1cc(-c2nc(Nc3ccc(S(C)(=O)=O)c(Cl)c3)sc2CO)ccn1 [SR-33528, (2-((3-Chloro-4-(methylsulfonyl)phenyl)amino)-4-(2-methylpyridin-4-yl)thiazol-5-yl)methanol] | yes | 80
2 | CS(=O)(=O)c1ccc(Nc2nc(-c3ccnc(Cl)c3)c(CO)s2)cc1Cl [SR-33529, (2-((3-Chloro-4-(methylsulfonyl)phenyl)amino)-4-(2-chloropyridin-4-yl)thiazol-5-yl)methanol] | yes | 80
3 | Cc1cc(-c2csc(Nc3ccc(S(=O)(=O)O)cc3)n2)cc(C)n1 [SR-33784, 4-((4-(2,6-Dimethylpyridin-4-yl)thiazol-2-yl)amino)benzenesulfonic acid] | yes | 25
4 | O=S(=O)(O)c1ccc(Nc2nc(-c3ccncc3)cs2)cc1 [SR-33785, 4-((4-(Pyridin-4-yl)thiazol-2-yl)amino)benzenesulfonic acid] | yes | 40
5 | Cc1cc(-c2csc(Nc3ccc(S(C)(=O)=O)cc3)n2)cc(C)n1 [SR-33786, 4-(2,6-Dimethylpyridin-4-yl)-N-(4-(methylsulfonyl)phenyl)thiazol-2-amine] | yes | 20
6 | COc1cc(-c2csc(Nc3ccc(S(C)(=O)=O)c(Cl)c3)n2)cc(OC)n1 [SR-33787, N-(3-chloro-4-(methylsulfonyl)phenyl)-4-(2,6-dimethoxypyridin-4-yl)thiazol-2-amine] | yes | 80
7 | CS(=O)(=O)c1ccc(Nc2nc(-c3ccncc3)cs2)cc1 [SR-33788, N-(4-(methylsulfonyl)phenyl)-4-(pyridin-4-yl)thiazol-2-amine] | yes | 80
8 | COc1cc(-c2csc(Nc3ccc(S(C)(=O)=O)cc3)n2)cc(OC)n1 [SR-33789, 4-(2,6-Dimethoxypyridin-4-yl)-N-(4-(methylsulfonyl)phenyl)thiazol-2-amine] | yes | 300
9 | COc1cc(-c2csc(Nc3ccc(S(N)(=O)=O)cc3)n2)cc(OC)n1 [SR-33790, 4-((4-(2,6-Dimethoxypyridin-4-yl)thiazol-2-yl)amino)benzenesulfonamide] | yes | 35
10 | Cc1cc(-c2csc(Nc3ccc(S(N)(=O)=O)cc3)n2)cc(C)n1 [SR-33791, 4-((4-(2,6-Dimethylpyridin-4-yl)thiazol-2-yl)amino)benzenesulfonamide] | yes | 25
11 | Cc1cc(-c2csc(Nc3ccc(S(C)(=O)=O)cc3)n2)ccn1 [SR-33793, 4-(2-Methylpyridin-4-yl)-N-(4-(methylsulfonyl)phenyl)thiazol-2-amine] | yes | 20
12 | Cc1cc(-c2nc(Nc3ccc(S(C)(=O)=O)cc3)sc2CO)cc(C)n1 [SR-33794, (4-(2,6-Dimethylpyridin-4-yl)-2-((4-(methylsulfonyl)phenyl)amino)thiazol-5-yl)methanol] | yes | 70
13 | CS(=O)(=O)c1ccc(Nc2nc(-c3ccncc3)c(CO)s2)cc1 [SR-33795, (2-((4-(Methylsulfonyl)phenyl)amino)-4-(pyridin-4-yl)thiazol-5-yl)methanol] | yes | 350
14 | COc1cc(-c2nc(Nc3ccc(S(C)(=O)=O)cc3)sc2CO)cc(OC)n1 [SR-33796, (4-(2,6-Dimethoxypyridin-4-yl)-2-((4-(methylsulfonyl)phenyl)amino)thiazol-5-yl)methanol] | yes | 450
15 | COc1cc(-c2nc(Nc3ccc(S(N)(=O)=O)cc3)sc2CO)cc(OC)n1 [SR-33797, 4-((4-(2,6-Dimethoxypyridin-4-yl)-5-(hydroxymethyl)thiazol-2-yl)amino)benzenesulfonamide] | yes | 45
16 | Cc1cc(-c2nc(Nc3ccc(S(N)(=O)=O)cc3)sc2CO)cc(C)n1 [SR-33798, 4-((4-(2,6-Dimethylpyridin-4-yl)-5-(hydroxymethyl)thiazol-2-yl)amino)benzenesulfonamide] | yes | 20
17 | Cc1cc(-c2nc(Nc3ccc(S(C)(=O)=O)cc3)sc2CO)ccn1 [SR-33799, (4-(2-Methylpyridin-4-yl)-2-((4-(methylsulfonyl)phenyl)amino)thiazol-5-yl)methanol] | yes | 60
18 | COc1cc(-c2nc(Nc3ccc(S(C)(=O)=O)c(Cl)c3)sc2CO)cc(OC)n1 [SR-33800, (2-((3-Chloro-4-(methylsulfonyl)phenyl)amino)-4-(2,6-dimethoxypyridin-4-yl)thiazol-5-yl)methanol] | yes | 55

Row | Structure (SMILES) | Stabilty in human microsomes ≥ 15 minutes [1] | EC50 [2] [nM]
19 | Cc1cc(-c2nc(Nc3ccc(S(=O)(=O)O)cc3)sc2CO)cc(C)n1 [SR-33801, 4-((4-(2,6-Dimethylpyridin-4-yl)-5-(hydroxymethyl)thiazol-2-yl)amino)benzenesulfonic acid] | yes | 40
20 | O=S(=O)(O)c1ccc(Nc2nc(-c3ccncc3)c(CO)s2)cc1 [SR-33878, 4-((5-(Hydroxymethyl)-4-(pyridin-4-yl)thiazol-2-yl)amino)benzenesulfonic acid] | yes | 300
21 | CC(C)NS(=O)(=O)c1ccc(-c2csc(Nc3ccc(S(N)(=O)=O)cc3)n2)cc1 [SR-34770, N-isopropyl-4-(2-((4-sulfamoylphenyl)amino)thiazol-4-yl)benzenesulfonamide] | yes | 300
22 | NS(=O)(=O)c1ccc(Nc2nc(-c3ccc(S(=O)(=O)Nc4ccccc4)cc3)c(CO)s2)cc1 [SR-34773, 4-(5-(Hydroxymethyl)-2-((4-sulfamoylphenyl)amino)thiazol-4-yl)-N-phenylbenzenesulfonamide] | yes | 300
23 | CC(C)NS(=O)(=O)c1ccc(-c2nc(Nc3ccc(S(N)(=O)=O)cc3)sc2CO)cc1 [SR-34776, 4-(5-(Hydroxymethyl)-2-((4-sulfamoylphenyl)amino)thiazol-4-yl)-N-isopropylbenzenesulfonamide] | yes | 100
24 | Cc1cc(-c2nc(Nc3ccc(S(C)(=O)=O)cc3)sc2CCl)ccn1 [SR-34893, 5-(Chloromethyl)-4-(2-methylpyridin-4-yl)-N-(4-(methylsulfonyl)phenyl)thiazol-2-amine] | yes | 400
25 | CNS(=O)(=O)c1ccc(-c2csc(Nc3ccc(S(C)(=O)=O)cc3)n2)cc1 [SR-34964, N-methyl-4-(2-((4-(methylsulfonyl)phenyl)amino)thiazol-4-yl)benzenesulfonamide] | yes | 105
26 | Cc1cc(-c2csc(Nc3ccc(S(C)(=O)=O)c(F)c3)n2)cc(C)n1 [SR-34974, 4-(2,6-Dimethylpyridin-4-yl)-N-(3-fluoro-4-(methylsulfonyl)phenyl)thiazol-2-amine] | yes | 100
27 | CS(=O)(=O)c1ccc(Nc2nc(-c3ccnc(Cl)c3)cs2)cc1C(F)(F)F [SR-34982, 4-(2-Chloropyridin-4-yl)-N-(4-(methylsulfonyl)-3-(trifluoromethyl)phenyl)thiazol-2-amine] | yes | 120
28 | Cc1cc(-c2csc(Nc3ccc(S(C)(=O)=O)c(C(F)(F)F)c3)n2)cc(C)n1 [SR-34984, 4-(2,6-Dimethylpyridin-4-yl)-N-(4-(methylsulfonyl)-3-(trifluoromethyl)phenyl)thiazol-2-amine] | yes | 60
29 | COc1cc(-c2csc(Nc3ccc(S(C)(=O)=O)c(Cl)c3)n2)ccn1 [SR-34993, N-(3-Chloro-4-(methylsulfonyl)phenyl)-4-(2-methoxypyridin-4-yl)thiazol-2-amine] | yes | 125
30 | CNS(=O)(=O)c1ccc(-c2csc(Nc3ccc(C(F)(F)F)cc3)n2)cc1 [SR-35726, N-methyl-4-(2-((4-(trifluoromethyl)phenyl)amino)thiazol-4-yl)benzenesulfonamide] | yes | 480
31 | CNS(=O)(=O)c1ccc(-c2csc(Nc3ccc(CS(C)(=O)=O)cc3)n2)cc1 [SR-35727, N-methyl-4-(2-((4-((methylsulfonyl)methyl)phenyl)amino)thiazol-4-yl)benzenesulfonamide] | yes | 18
32 | CS(=O)(=O)c1ccc(-c2csc(Nc3ccc(S(N)(=O)=O)cc3)n2)cc1 [SR-35729, 4-((4-(4-(Methylsulfonyl)phenyl)thiazol-2-yl)amino)benzenesulfonamide] | yes | 1.6
33 | CS(=O)(=O)c1ccc(Nc2nc(-c3ccc(S(C)(=O)=O)cc3)cs2)cc1 [SR-35730, N,4-bis(4-(methylsulfonyl)phenyl)thiazol-2-amine] | yes | 4
34 | Cc1ccc(-c2csc(Nc3ccc(S(C)(=O)=O)cc3)n2)cc1 [SR-35731, N-(4-(methylsulfonyl)phenyl)-4-(p-tolyl)thiazol-2-amine] | yes | > 500
35 | CS(=O)(=O)c1ccc(Nc2nc(-c3ccc(C(F)(F)F)cc3)cs2)cc1 [SR-35733, N-(4-(Methylsulfonyl)phenyl)-4-(4-(trifluoromethyl)phenyl)thiazol-2-amine] | yes | > 500
